In ChEMBL document CHEMBL4400539, “Discovery of a Novel Chemotype of Histone Lysine Methyltransferase EHMT1/2 (GLP/G9a) Inhibitors: Rational Design, Synthesis, Biological Evaluation, and Co-crystal Structure” (J Med Chem, 2019) one finds inhibition, IC50 and metabolised data, which are given here for one compound.

Data set [1] concerns the target DNA (cytosine-5)-methyltransferase 3A (Homo sapiens) (UniProt Q9Y6K1). In words: Inhibition of N-terminal GST-tagged recombinant full length human DNMT3a (2 to 913 residues) using bacteriophage lambda DNA as substrate preincubated for 20 mins followed by [3H]-SAM and measured after 60 mins by scintillation counting.
Data set [2] addresses DNA (cytosine-5)-methyltransferase 1 (Homo sapiens, UniProt P26358). The data set can be described thus: Inhibition of N-terminal GST-tagged recombinant full length human DNMT1 (2 to 1632 residues) using poly(dI-dC)):poly(dI-dC) as substrate preincubated for 20 mins followed by [3H]-SAM and measured after 60 mins by scintillation counting.
For data set [3], the target named is DNA (cytosine-5)-methyltransferase 3B (Homo sapiens) (UniProt Q9UBC3). In words: Inhibition of N-terminal GST-tagged recombinant full length human DNMT3b (2 to 853 residues) using bacteriophage lambda DNA as substrate preincubated for 20 mins followed by [3H]-SAM and measured after 60 mins by scintillation counting.
The target of data set [4] is T1, Histone-lysine N-methyltransferase EHMT1 (Homo sapiens) (UniProt Q9H9B1).
T1 sequence (whole entry): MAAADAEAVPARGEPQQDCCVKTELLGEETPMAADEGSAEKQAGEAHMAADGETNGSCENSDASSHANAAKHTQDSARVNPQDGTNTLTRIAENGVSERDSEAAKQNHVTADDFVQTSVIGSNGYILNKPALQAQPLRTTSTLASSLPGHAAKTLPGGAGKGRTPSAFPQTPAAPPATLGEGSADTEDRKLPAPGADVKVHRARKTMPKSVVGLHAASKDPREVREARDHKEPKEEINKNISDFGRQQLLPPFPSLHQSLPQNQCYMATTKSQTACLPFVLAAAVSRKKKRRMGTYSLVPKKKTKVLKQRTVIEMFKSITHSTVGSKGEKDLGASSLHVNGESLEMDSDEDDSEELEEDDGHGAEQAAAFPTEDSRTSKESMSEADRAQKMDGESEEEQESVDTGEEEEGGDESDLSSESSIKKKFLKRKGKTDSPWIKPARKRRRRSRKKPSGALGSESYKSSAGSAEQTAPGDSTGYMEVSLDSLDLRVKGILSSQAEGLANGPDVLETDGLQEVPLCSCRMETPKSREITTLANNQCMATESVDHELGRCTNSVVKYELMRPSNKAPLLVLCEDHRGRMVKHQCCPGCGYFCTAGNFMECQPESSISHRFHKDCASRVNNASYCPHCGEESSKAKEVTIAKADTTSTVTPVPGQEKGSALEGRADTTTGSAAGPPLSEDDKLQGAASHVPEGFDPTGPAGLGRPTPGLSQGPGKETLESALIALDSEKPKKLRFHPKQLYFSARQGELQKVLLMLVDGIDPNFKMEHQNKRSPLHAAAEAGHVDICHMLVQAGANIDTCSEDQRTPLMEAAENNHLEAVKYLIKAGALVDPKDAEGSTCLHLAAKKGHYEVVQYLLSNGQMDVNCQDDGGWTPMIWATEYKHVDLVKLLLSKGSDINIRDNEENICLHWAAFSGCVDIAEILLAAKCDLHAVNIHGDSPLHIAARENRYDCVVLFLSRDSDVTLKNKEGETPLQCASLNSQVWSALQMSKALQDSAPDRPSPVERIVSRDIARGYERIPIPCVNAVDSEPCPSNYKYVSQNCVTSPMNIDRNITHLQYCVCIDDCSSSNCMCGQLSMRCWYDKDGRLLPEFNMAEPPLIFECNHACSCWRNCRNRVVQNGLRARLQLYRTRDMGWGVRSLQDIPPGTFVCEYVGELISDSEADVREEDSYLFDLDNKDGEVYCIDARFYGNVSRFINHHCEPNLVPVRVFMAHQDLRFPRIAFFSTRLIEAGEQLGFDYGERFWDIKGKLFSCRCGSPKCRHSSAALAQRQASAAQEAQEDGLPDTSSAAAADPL
The data set can be described thus: Inhibition of recombinant human GLP at 10 uM using biotinylated-Histone H3 peptide (1 to 21 residues) after 30 mins by AlphaLISA assay relative to control. (In general: Alpha assays give light when donor and acceptor beads are brought close together.)

Data set [5] is described as follows: Metabolic stability in human liver microsomes assessed as parent compound turn over percentage at 1 mM preincubated for 5 mins followed by NADPH addition and measured for 60 mins by UHPLC analysis. It counts as ADME, Microsome. Particulars: read-out: Drug metabolism. Background: Liver microsomes are vesicles of endoplasmic reticulum, rich in cytochrome P450 enzymes.

In data set [6] the target is T1, Histone-lysine N-methyltransferase EHMT1 (Homo sapiens). The data set can be described thus: Inhibition of recombinant human GLP at 25 uM using biotinylated-Histone H3 peptide (1 to 21 residues) after 30 mins by AlphaLISA assay relative to control.

The source made the active and inactive calls. The calls are words filed in the database; no cut-off is given here.

Chain of DNA (cytosine-5)-methyltransferase 3A (Homo sapiens) (Q9Y6K1 whole entry, looked up, the tested form may be a part): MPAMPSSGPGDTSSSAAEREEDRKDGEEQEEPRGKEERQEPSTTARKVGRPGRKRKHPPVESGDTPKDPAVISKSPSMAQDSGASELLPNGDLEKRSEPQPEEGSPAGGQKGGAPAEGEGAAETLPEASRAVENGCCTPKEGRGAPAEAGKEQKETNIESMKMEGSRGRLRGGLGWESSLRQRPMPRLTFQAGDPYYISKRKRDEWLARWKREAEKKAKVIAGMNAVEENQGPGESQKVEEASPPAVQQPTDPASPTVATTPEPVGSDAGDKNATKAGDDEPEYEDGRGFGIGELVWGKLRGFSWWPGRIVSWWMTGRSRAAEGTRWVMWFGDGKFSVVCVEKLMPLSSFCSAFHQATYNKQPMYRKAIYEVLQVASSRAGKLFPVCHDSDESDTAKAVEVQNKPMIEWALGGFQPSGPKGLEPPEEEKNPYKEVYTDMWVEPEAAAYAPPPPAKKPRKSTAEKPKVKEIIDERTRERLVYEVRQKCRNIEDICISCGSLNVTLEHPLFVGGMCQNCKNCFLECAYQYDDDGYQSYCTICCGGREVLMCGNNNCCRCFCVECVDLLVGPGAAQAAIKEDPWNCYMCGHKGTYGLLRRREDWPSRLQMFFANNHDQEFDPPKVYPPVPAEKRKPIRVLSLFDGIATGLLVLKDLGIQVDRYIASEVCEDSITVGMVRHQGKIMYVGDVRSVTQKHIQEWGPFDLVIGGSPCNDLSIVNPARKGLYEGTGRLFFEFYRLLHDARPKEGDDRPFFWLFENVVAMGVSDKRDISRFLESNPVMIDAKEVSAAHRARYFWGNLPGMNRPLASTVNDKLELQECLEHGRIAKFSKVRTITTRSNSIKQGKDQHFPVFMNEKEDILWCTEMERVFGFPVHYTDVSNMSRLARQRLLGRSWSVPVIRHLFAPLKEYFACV
Chain of DNA (cytosine-5)-methyltransferase 1 (P26358 whole entry, the tested form may be a part): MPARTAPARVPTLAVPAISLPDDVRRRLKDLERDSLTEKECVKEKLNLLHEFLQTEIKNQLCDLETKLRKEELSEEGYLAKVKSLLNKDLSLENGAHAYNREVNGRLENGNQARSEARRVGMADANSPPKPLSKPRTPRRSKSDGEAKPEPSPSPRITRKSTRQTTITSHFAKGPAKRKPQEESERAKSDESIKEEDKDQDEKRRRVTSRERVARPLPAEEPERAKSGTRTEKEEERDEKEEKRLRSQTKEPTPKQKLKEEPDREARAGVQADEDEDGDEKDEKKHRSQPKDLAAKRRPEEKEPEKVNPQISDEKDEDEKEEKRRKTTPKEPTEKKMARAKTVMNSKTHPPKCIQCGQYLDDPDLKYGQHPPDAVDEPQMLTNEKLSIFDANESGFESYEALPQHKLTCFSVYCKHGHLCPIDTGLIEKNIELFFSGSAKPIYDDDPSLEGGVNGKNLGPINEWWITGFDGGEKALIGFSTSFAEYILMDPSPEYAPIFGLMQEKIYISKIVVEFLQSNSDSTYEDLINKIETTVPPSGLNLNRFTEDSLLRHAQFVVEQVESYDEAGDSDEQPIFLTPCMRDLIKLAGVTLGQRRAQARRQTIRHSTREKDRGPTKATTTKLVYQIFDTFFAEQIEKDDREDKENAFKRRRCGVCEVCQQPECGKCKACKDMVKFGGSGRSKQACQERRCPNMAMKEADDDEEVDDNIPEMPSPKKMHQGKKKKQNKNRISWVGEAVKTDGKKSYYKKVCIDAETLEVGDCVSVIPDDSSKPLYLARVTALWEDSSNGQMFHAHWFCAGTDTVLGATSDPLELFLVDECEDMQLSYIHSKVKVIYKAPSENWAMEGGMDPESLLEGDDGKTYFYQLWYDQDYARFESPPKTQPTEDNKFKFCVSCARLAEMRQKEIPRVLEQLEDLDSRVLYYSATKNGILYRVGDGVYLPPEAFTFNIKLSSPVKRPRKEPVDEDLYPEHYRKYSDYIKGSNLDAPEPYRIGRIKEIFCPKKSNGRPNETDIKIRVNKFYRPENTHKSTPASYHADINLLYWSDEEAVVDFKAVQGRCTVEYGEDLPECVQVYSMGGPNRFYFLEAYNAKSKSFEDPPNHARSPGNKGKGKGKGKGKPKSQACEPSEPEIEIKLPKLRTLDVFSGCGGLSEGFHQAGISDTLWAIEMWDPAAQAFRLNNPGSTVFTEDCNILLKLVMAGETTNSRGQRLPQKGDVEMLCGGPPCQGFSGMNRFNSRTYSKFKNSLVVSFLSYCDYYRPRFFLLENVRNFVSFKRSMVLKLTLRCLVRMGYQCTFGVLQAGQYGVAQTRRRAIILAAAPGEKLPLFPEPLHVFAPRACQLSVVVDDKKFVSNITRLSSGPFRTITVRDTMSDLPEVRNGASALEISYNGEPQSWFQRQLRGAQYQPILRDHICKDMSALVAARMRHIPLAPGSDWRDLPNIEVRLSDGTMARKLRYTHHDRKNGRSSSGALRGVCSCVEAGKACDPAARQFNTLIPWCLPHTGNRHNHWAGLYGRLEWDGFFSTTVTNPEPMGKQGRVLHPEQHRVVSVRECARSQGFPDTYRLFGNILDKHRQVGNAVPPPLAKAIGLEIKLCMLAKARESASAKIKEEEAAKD

Regarding `COc1cc2c(cc1OCCCN1CCCC1)N=C(C1CCCCC1)CN=C2NC1CCN(C(C)C)CC1`, the inhibition entry in data set [1] and in data set [3] was “inactive” in each case. Further, in data set [2], the IC50 was 3.1 µM. In addition, the inhibition came to 95% in data set [4] and 98% in data set [6]. For the same compound, the metabolised at 1 h in data set [5] worked out at 2.25%.

Broadly, the inhibition is the change of the read-out against control, counted positive when it falls. The IC50 is the concentration at which inhibition is half-maximal.
